Measured values taken from paper PMC2994747, “Molecular Characterization of c-Abl/c-Src Kinase Inhibitors Targeted against Murine Tumour Progenitor Cells that Express Stem Cell Markers” (PLoS ONE, 2010).

Key:
CaCo2 [1] = assay: Western blot, semi-quantitative protein expression; assay type: cell-based, human
Method: (§1) For the Western Blot analysis, cells were rinsed and lysed as previously described. An amount of 25 µg protein was used for SDS-PAGE. Antibodies for c-Abl (sc-131), Actin (sc-1616), Cdc2-p34 (sc-8395), EPS15 (sc-1840), FAK (sc-558), c-Fos (sc-52), p38 (sc-7972), p53 (sc-6243) and STAT5 (sc-835x) were obtained from Santa Cruz (Santa Cruz Biotechnology, Heidelberg, Germany), while c-Src (2109) and phospho-Src Y416 (2101) were purchased from Cell Signaling (Cell Signaling Technology, Frankfurt a. M., Germany). The EGFR (06-847), phospho-EGFR Y992 (07-821) and phospho-EGFR Y1045 (04-284) stem from Upstate (Upstate, Schwalbach, Germany) and the hnRNP-K (A300-676A) from Bethyl Labs (Bethyl Laboratories, Montgomery, Texas, USA). Finally p73 (IMG-246) was supplied by Imgenex (Imgenex, Hamburg, Germany). Depending on the primary antibody the secondary antibodies were either horseradish peroxidase-conjugated anti-mouse (AP 160P), anti-rabbit (AP 132P) or anti-sheep (AP 147P) (Chemicon, Schwalbach, Germany).
(§2) Semi-quantitative analysis were carried out with Kodak 1D Image Analysis Software in reference to the vehicle treated control cells (see supplementary table S7).

A549 [2] = assay: Western blot, semi-quantitative protein expression; assay type: cell-based, human
Method: as §1, §2

A2C12 [3] = assay: Western blot, semi-quantitative protein expression; assay type: cell-based, mouse
Method: as §1, §2

CaCo2 [4] = assay: Cell cycle analysis by flow cytometry; assay type: cell-based, human; settings: IC50 concentration, 96 h
Outline: (§3)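 Step one: detach cells with trypsin and rinse with PBS. Step two: pellet, then treat with solution A for 10 min at room temperature. Step three: add solutions B and C, with the final incubation cold (4°C) and dark, before cytometric acquisition.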

HepG2 = assay: Cell cycle analysis by flow cytometry; assay type: cell-based, human; settings: IC50 concentration, 96 h
Outline: as §3

A549 [5] = assay: Cell cycle analysis by flow cytometry; assay type: cell-based, human; settings: IC50 concentration, 96 h
Outline: as §3

A2C12 [6] = assay: Cell cycle analysis by flow cytometry; assay type: cell-based, mouse; settings: IC50 concentration, 96 h
Outline: as §3

GammaA3 = assay: Whole genome expression analysis (Affymetrix microarray); assay type: cell-based, mouse; settings: IC50 concentration, 96 h
Method: The cells were harvested and RNA was isolated using RNeasy Mini Kit (Qiagen, Hilden, Germany) according to the instructions of the manufacturer. The isolated RNA (250 ng) was processed further using standard protocols as described recently with the exception of the 3′ IVT Express Kit (Affymetrix, High Wycombe, UK) that was utilized according to instructions. Quality control of cRNA was done with the Agilent 2100 Bioanalyzer (Agilent Tech according to manufacturer's protocols. Following fragmentation, cRNA of each sample was hybridized to Affymetrix GeneChip® Mouse Genome 430 2.0 or Human Genome U133 Plus 2.0 and scanned with an Affymetrix 3000 7G scanner.
The resultant data was normalized by Probe Logarithmic Intensity Error Estimation (PLIER) algorithm. Statistical analysis was carried out with the ArrayTrack software (National Center for Toxicological Research/FDA, Jefferson, AR, USA) using SAM algorithm.

[7] = tested on: human and murine cell lines; assay: Western blot, statements over human and murine cell lines; assay type: cell-based; settings: IC50 concentration, 96 h
Method: as §1, §2

Clc1cccc(Nc2nc(SC3CCCC3)nc3c2cnn3CC(Cl)c2ccccc2)c1 (centres unmarked) [Si135] was tested, and the Actin protein expression (CaCo2 [1]) was 120, the Cdc2-p34 protein expression (CaCo2 [1]) was 74 and the “EGFR Y992-p protein expression” value (CaCo2 [1]) was 113. For the same compound, the “EGFR Y1045-p protein expression” value (CaCo2 [1]) was 104, the EGFR protein expression (CaCo2 [1]) was 44 and the EPS15 protein expression (CaCo2 [1]) was 79. For the same compound, the FAK protein expression (CaCo2 [1]) was 82, the STAT5 protein expression (CaCo2 [1]) was 120 and the c-Abl protein expression (CaCo2 [1]) was 155. The c-Fos protein expression (CaCo2 [1]) was 164, the “c-Src Y416-p protein expression” value (CaCo2 [1]) was 129 and the c-Src protein expression (CaCo2 [1]) was 125. It also gave a hnRNP-K protein expression (CaCo2 [1]) of 90, a p38 protein expression (CaCo2 [1]) of 64 and a p53 protein expression (CaCo2 [1]) of 69. The p73 protein expression (CaCo2 [1]) was 66, the Actin protein expression (A549 [2]) was 98 and the Cdc2-p34 protein expression (A549 [2]) was 82. The “EGFR Y992-p protein expression” value (A549 [2]) was 128, the “EGFR Y1045-p protein expression” value (A549 [2]) was 23 and the EGFR protein expression (A549 [2]) was 45. It also gave an EPS15 protein expression (A549 [2]) of 56, an FAK protein expression (A549 [2]) of 130 and an STAT5 protein expression (A549 [2]) of 80. For the same compound, the c-Abl protein expression (A549 [2]) was 88, the c-Fos protein expression (A549 [2]) was 50 and the “c-Src Y416-p protein expression” value (A549 [2]) was 110. It also gave a c-Src protein expression (A549 [2]) of 94, a hnRNP-K protein expression (A549 [2]) of 83 and a p38 protein expression (A549 [2]) of 62. The p53 protein expression (A549 [2]) was 59, the p73 protein expression (A549 [2]) was 55 and the Actin protein expression (A2C12 [3]) was 88. For the same compound, the “EGFR Y992-p protein expression” value (A2C12 [3]) was 79, the “EGFR Y1045-p protein expression” value (A2C12 [3]) was 69 and the EGFR protein expression (A2C12 [3]) was 30. It also gave an EPS15 protein expression (A2C12 [3]) of 83, an FAK protein expression (A2C12 [3]) of 71 and an STAT5 protein expression (A2C12 [3]) of 95. The c-Abl protein expression (A2C12 [3]) was 64, the c-Fos protein expression (A2C12 [3]) was 52 and the c-Src protein expression (A2C12 [3]) was 95. The hnRNP-K protein expression (A2C12 [3]) was 87, the p38 protein expression (A2C12 [3]) was 33 and the p53 protein expression (A2C12 [3]) was 58. For the same compound, the p73 protein expression (A2C12 [3]) was 43, the “Cells in G1 phase” value (CaCo2 [4]) was 42.1% and the “Cells in G2 phase” value (CaCo2 [4]) was 12.1%. The “Cells in S phase” value (CaCo2 [4]) was 45.8%, the “Cells in G1 phase” value (HepG2) was 58% and the “Cells in G2 phase” value (HepG2) was 9.5%. For the same compound, the “Cells in S phase” value (HepG2) was 32.5%, the “Cells in G1 phase” value (A549 [5]) was 50.8% and the “Cells in G2 phase” value (A549 [5]) was 8.6%. The “Cells in S phase” value (A549 [5]) was 40.6%, the “Cells in G1 phase” value (A2C12 [6]) was 54.5% and the “Cells in G2 phase” value (A2C12 [6]) was 12.6%. For the same compound, the “Cells in S phase” value (A2C12 [6]) was 33%, the “Significantly differentially regulated genes, downregulated (number)” value (GammaA3; SAM FDR<0.01, FC>2) was 66 and the “Significantly differentially regulated genes, upregulated (number)” value (GammaA3; SAM FDR<0.01, FC>2) was 79. For the same compound, the Actg2 gene expression (GammaA3; vs control) was -1.23 log2 of fold change, the Ccl5 gene expression (GammaA3; vs control) was 3.04 log2 of fold change and the Cenpa gene expression (GammaA3; vs control) was 1.11 log2 of fold change. For the same compound, the Col1a1 gene expression (GammaA3; vs control) was -1.15 log2 of fold change, the Has2 gene expression (GammaA3; vs control) was -1.09 log2 of fold change and the Itga6 gene expression (GammaA3; vs control) was 1.72 log2 of fold change. For the same compound, the Mapk8ip1 gene expression (GammaA3; vs control) was -1.05 log2 of fold change, the Mmp3 gene expression (GammaA3; vs control) was 1.52 log2 of fold change and the Mmp13 gene expression (GammaA3; vs control) was 1.29 log2 of fold change. The Ngef gene expression (GammaA3; vs control) was 1.56 log2 of fold change, the Tbrg4 gene expression (GammaA3; vs control) was -1.09 log2 of fold change and the Ywhaz gene expression (GammaA3; vs control) was -1.04 log2 of fold change. The Zyx gene expression (GammaA3; vs control) was -1.34 log2 of fold change and the “hnRNP-K protein level” value [7] was “remained equal”.
